Experiments:
[1] = biological target: T1, Anaplastic Lymphoma Kinase (ALK) (Homo sapiens, UniProt Q9UM73); test: ALK kinase activity (summary Table 27); format: biochemical
T1 construct: illustrates the kinase domain of ALK (residues 1058-1623) which was used in these experiments; 6xHis (N); purchased Millipore lot 32944U-H (catalogue number not given); host or cells: baculovirus / Sf21

[2] = tested on: human breast, ovarian and lymphoma cancer cell lines; test: Paclitaxel induced apoptosis (PARP cleavage, Bcl-2 phosphorylation, DNA laddering); format: cell-based
Source text: Tavocept mediates the non-enzymatic xenobiotic modification of sulfur-containing amino acid residues (e.g., cysteine) on proteins. As an engineered, non-naturally occurring agent (i.e., xenobiotic), Tavocept is autocatalytic and requires no protein cofactor to cause the xenobiotic modification of cysteine, but appears to be specific for cysteine residues located within a particular structural context (i.e., not all cysteines in a protein are so modified). Tavocept-mediated, xenobiotic modification represents a novel mechanism of action for a cancer treating agent and can be compared to a degree with post-translational modifications of cysteine residues in proteins (see, Table 3, below).

T790M EGFR kinase = T790M EGFR kinase (Homo sapiens, UniProt P00533, T790M); test: EGFR kinase assay (ADP-glo, polyGT substrate), T790M mutant; format: biochemical
[3] = biological target: T2, Trx (E13K, D16K, E95K, E103K) (Homo sapiens, UniProt P10599, D16K/E103K/E13K/E95K); test: X-ray crystallography of Tavocept-derived mesna adduct on Trx; format: binding; conditions: Tavocept 40 mM
T2 construct: 6xHis with TEV site (N, cleaved yes); made in house; host or cells: E. coli BL21(DE3)
T2 sequence (P10599 1-105 E13K/D16K/E95K/E103K): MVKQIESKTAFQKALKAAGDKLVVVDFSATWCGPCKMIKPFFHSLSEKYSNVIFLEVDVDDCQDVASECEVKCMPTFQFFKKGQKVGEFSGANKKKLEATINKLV
Protocol: Adduct was prepared as described above with some modifications designed to increase the likelihood of success in crystallization of the protein. […] This reaction was incubated for 1 hour at 30° C. followed by overnight incubation at 4° C. […] Aliquots of this solution were analyzed by ESI LC-MS to confirm the presence of adduct(s) prior to initiation of crystallization experiments.
These initial broad screens produced crystals under a wide range of conditions (data not shown) and the screens used included: (i) PEGION, CRYSTALS HT, and PEGRX (Hampton Research) and (ii) JCSG and BASIC (JENA Biosciences). Multiple rounds of optimization were completed and included fine screens, varying the protein concentration and varying the protein to reservoir ratios to obtain diffraction quality crystals. In the Trx pH 9.0/8.5 structure (adduct formed at pH 9.0, crystals grown at pH 8.5), the best crystals were obtained in 20% ethanol, 0.1 M Tris (at 60 mg/mL Trx protein) and diffracted to 2.5 Å (C2 space group). In Trx pH 9.0/7.0 (adduct formed at pH 9.0, crystals grown at pH 7.0), the best crystals were obtained in 20% PEG3350, 0.2 M KCl (60 mg/mL Trx protein) and diffracted to 2.8 Å (C2 space group). In Trx pH 7.0/7.0 (adduct formed at pH 7.0, crystals grown at pH 7.0), the best crystals were obtained in 28% PEG3350, 0.2M KCl (160 mg/mL Trx protein) and diffracted to 1.85 Å resolution (P21 space group).
The solution obtained was consistent with four molecules in the crystal asymmetric unit. […] Molecules C and D were substantially rebuilt and the Tavocept-derived mesna adduct added after protein rebuilding was complete. The structure solution was supported by contiguous electron density for the entire chain trace of each molecule, landmark side chain density features matching the amino acid sequence including cysteines, absence of phi-psi violations, and final R/Rfree values in the normal range. […] For the Trx pH 9.0/8.5 structure, residual density observed near Cys69 of molecule A was modeled as a Tavocept-derived mesna adduct in a dual conformation. […]

[4] = tested on: bovine brain microtubule protein (α-/β-tubulin); test: Electron microscopy of microtubule polymerization reactions; format: biochemical; conditions: presence and absence of paclitaxel
Protocol: (1 mM/1 mM/6 μM (v/v/v)). Electron micrograph samples were prepared by gently mixing samples of reactions with an equal volume of 50% sucrose in buffer P (0.1 M PIPES, 1 mM EGTA, pH 6.5) and mounting on carbon-coated grids (400 mesh formvar/carbon, Electron Microscopy Sciences). Grids were washed with cytochrome c (1%) and water and stained with uranyl acetate (1%). Electron microscopy was performed using a Philips 208S electron microscope (Philips Instruments) at an accelerating voltage of 60 kV. Micrographs were taken at 36,000× and 7,000× magnifications.

[5] = biological target: T3, human glutaredoxin (Grx1) (Homo sapiens, UniProt P35754); test: X-ray crystallography of Tavocept-derived mesna adduct on Grx; format: binding; conditions: Tavocept 40 mM, 4° C. overnight
T3 construct: 6xHis (TEV-cleavable) (N, cleaved yes); made in house; host or cells: E. coli BL21 (RIPL)
Source text: Diffraction data were collected at the Advanced Light Source (ALS) (Berkeley, Calif.). […] Data was processed using the program package MosFlm as part of the ccp4 program package.
Data was indexed, integrated, scaled and merged using the program Mosflm. […] The solution was consistent with one molecule in the crystal asymmetric unit. […] The structure solution is supported by contiguous electron density for the entire chain trace of each molecule, landmark side chain density features matching the amino acid sequence including cysteines, absence of phi-psi violations and final R/Rfree values in the normal range. […] Residues Gln39 and Glu55 have missing side-chain atoms in the final structures (side chain atoms CD, CG, OE1, NE2 and CD, OE1, OE2, respectively).

RNR subunit 1 = RNR subunit 1 (Homo sapiens, UniProt P23921); test: Whole protein Mass Spectroscopy of RNR1; format: binding
Source text: RNR1 contains a total of sixteen (16) cysteine residues and at least five (5) of these cysteine residues are required for catalysis, including: Cys218, Cys429, Cys444, Cys787, and Cys790. It is hypothesized that the Tavocept-derived mesna adducts identified on the RNR1 protein using whole protein Mass Spectroscopy (see, FIG. 49) may alter or modulate RNR activity.

T790M EGFR kinase, sequence (P00533 25-1210 T790M): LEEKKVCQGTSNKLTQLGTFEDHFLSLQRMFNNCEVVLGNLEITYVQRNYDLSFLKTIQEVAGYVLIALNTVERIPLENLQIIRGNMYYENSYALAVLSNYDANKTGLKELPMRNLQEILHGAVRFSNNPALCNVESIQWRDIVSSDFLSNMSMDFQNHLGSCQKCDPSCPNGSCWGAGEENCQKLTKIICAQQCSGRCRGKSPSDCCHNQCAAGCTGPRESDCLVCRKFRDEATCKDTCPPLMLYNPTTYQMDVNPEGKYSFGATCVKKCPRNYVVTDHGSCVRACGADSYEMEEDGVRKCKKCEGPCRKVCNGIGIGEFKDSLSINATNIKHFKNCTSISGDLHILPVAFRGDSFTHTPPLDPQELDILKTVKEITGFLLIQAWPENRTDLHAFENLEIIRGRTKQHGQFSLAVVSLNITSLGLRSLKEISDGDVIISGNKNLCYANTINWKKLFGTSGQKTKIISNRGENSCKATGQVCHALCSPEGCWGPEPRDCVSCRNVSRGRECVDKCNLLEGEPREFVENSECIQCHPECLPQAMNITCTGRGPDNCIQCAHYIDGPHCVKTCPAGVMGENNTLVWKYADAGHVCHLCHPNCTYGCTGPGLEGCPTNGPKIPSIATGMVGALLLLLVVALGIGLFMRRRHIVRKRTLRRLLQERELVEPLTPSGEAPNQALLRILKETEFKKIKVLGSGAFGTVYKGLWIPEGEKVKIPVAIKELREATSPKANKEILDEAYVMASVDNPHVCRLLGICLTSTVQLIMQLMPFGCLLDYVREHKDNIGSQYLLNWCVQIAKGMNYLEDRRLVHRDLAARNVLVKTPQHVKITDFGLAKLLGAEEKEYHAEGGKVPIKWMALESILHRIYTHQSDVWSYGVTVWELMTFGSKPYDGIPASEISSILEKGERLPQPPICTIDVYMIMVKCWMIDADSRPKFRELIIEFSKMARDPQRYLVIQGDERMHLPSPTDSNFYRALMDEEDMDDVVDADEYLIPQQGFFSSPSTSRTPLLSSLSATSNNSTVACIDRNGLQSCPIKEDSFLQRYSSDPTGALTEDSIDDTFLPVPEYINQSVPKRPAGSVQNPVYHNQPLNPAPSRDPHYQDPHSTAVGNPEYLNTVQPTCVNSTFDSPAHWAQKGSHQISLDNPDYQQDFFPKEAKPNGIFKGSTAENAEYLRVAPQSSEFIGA
T3 sequence (P35754 whole entry): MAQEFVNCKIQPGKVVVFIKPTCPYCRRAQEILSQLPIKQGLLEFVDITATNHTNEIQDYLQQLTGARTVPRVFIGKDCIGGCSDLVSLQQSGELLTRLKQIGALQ
T1 sequence (Q9UM73 1058-1620 limits assumed): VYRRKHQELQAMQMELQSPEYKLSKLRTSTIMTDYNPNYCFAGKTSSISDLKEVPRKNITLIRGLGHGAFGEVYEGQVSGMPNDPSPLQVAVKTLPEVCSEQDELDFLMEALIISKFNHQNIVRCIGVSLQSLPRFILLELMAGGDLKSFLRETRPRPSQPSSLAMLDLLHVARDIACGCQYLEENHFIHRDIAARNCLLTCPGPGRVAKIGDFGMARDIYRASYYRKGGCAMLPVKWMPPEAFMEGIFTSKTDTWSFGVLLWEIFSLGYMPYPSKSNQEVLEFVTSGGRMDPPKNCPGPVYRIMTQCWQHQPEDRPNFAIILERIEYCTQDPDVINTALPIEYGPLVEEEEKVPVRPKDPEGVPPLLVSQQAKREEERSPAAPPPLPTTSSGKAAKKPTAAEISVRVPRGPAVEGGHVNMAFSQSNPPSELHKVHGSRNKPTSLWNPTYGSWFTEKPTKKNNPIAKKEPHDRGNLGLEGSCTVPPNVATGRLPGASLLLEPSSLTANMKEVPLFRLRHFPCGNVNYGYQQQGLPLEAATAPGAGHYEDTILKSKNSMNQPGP
RNR subunit 1, sequence (P23921 whole entry): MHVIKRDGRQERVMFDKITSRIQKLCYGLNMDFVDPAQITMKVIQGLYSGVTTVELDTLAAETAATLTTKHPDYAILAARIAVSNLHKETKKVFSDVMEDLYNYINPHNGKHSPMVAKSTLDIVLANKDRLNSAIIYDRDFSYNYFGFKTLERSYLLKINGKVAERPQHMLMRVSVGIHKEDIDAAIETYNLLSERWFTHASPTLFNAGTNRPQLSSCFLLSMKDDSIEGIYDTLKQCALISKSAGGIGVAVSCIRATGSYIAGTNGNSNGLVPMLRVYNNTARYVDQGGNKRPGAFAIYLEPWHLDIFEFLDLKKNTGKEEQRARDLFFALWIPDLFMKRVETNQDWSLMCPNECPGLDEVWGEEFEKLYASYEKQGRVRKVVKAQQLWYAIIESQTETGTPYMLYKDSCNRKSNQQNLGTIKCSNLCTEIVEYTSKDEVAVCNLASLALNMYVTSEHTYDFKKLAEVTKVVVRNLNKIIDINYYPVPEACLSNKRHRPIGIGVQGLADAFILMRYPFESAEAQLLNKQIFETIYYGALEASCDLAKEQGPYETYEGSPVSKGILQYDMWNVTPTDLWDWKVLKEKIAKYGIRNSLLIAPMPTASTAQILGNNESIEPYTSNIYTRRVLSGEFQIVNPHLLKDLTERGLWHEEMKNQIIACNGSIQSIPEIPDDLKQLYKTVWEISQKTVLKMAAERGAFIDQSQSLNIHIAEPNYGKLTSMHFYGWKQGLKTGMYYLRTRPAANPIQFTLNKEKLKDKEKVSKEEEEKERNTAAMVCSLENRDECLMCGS

`O=S(=O)([O-])CCSSCCS(=O)(=O)[O-].[Na+].[Na+]` [Tavocept, disodium 2,2′-dithio-bis-ethane sulfonate] was tested. Which “Cellular consequence of BNP7787-modification and/or modulation: ALK” value [1] did it give?
Its value is “BNP7787 disrupts/blocks ATP binding site resulting in inhibition”.

And the “interference with paclitaxel induced apoptosis” value [2]?
The value was “does not interfere”.

What about the “inhibition of T790M EGFR kinase” value (T790M EGFR kinase; 10 μM or 100 μM ATP, physiological concentrations (<20 mM) of Tavocept) of the same molecule?
The value was “did not notably inhibit”.

And the “inhibitory activity on T790M EGFR kinase activity” value (T790M EGFR kinase; Tavocept alone, 10 μM ATP)?
The value was “essentially no inhibitory activity”.

And the “effect on Erlotinib inhibition of T790M EGFR kinase” value (T790M EGFR kinase; Tavocept in combination with Erlotinib, 10 μM ATP)?
The value was “strongly potentiated”.

What about the “Mesna adduct site on Trx by X-ray” value ([3]; Trx pH 7.0/7.0 structure) of the same molecule?
The value was “clearly visible on Cys69 in both molecules A and B”.

What about the “Mesna adduct site on Trx by X-ray” value ([3]; Trx pH 9.0/7.0 structure) of the same molecule?
Its value is “clearly visible on both Cys69 and Cys62 in both molecules A and B”.

And the “Mesna adduct site on Trx by X-ray” value ([3]; Trx pH 9.0/8.5 structure)?
Its value is “clearly visible on Cys69 in both molecules A and B”.

What about the “abundance of microtubules on EM grids” value ([4]; Tavocept preincubated 20 minutes, qualitative) of the same molecule?
The value was “reduction in the abundance of microtubules”.

What about the microtubule morphology ([4]; Tavocept) of the same molecule?
Its microtubule morphology is “no effects on overall gross microtubule morphology”.

What about the “Mesna adduct sites on Grx by X-ray” value [5] of the same molecule?
Its value is “Cys7 and Cys82”.

What about the “number of Tavocept-derived mesna adducts on cysteine residues within RNR1” value (RNR subunit 1) of the same molecule?
The value was no more than 8.

Reference: patent publication US20170007561A1, “CONTEMPORANEOUS, HETEROGENEOUSLY-ORIENTED, MULTI-TARGETED THERAPEUTIC MODIFICATION AND/OR MODULATION OF DISEASE BY ADMINISTRATION OF SULFUR-CONTAINING, AMINO ACID-SPECIFIC SMALL MOLECULES” (BioNumerik Pharmaceuticals, Inc., priority 2014, published 2017)
